In data set [1] the test system is normal non-senescent WI-38 fibroblast cells (Non-SnCs). The data set can be described thus: Viability of non-senescent WI-38 fibroblast cells. The format is cell-based. As to conditions: 72 hr incubation; vs ABT263. The text has this:
FIG. 2A depicts immunoblots showing degradation of Bcl-xl and Bcl-2 in non-senescent WI-38 fibroblast cells (Non-SnCs) treated with varying concentrations of 753b. 3-actin was used as a loading control. FIG. 2B depicts viability of Non-SnCs treated with varying concentrations of 753b or ABT263. FIG. 2C depicts immunoblots showing degradation of Bcl-xl and Bcl-2 in ionizing radiation-induced senescent WI-38 fibroblast cells (IR-SnCs) treated with varying concentrations of 753b. 3-actin was used as a loading control. FIG. 2D depicts viability of IR-SnCs treated with varying concentrations of 753b or ABT263. FIG. 2E depicts immunoblots showing degradation of Bcl-xl and Bcl-2 in human platelets treated with varying concentrations of 753b. FIG. 2F depicts viability of human platelets treated with varying concentrations of 753b or ABT263.
The potency of 753b in degrading Bcl-xl/2 was evaluated by immunoblots after the cells or platelets were treated with different concentrations of 753b for 16 h ([…]). 753b is more cytotoxic to IR-SnCs but less toxic to Non-SnCs and platelets. The viability of Non-SnCs, IR-SnCs and platelets was measured 72 hr (Non-SnCs and IR-SnCs) and 48 hr (platelets) after they were incubated with increasing concentrations of 753b or ABT263 compared to cells/platelets with vehicle.

Data set [2] has as its system senescent cells induced by STZ/HFD in the liver. Nature of the data set: Senescent cell clearance in livers of STZ/HFD mice (p16/p21 mRNA, SA-β-gal staining). The format is in vivo, C57BL6 mice. The settings on record: 5 mg/kg twice a week IP. The procedure: (§1) GAPDH was used as a loading control. FIG. 6B depicts the relative expression of p16 and p21 at mRNA levels in the livers of STZ/HFD mice treated with 753b or vehicle control. *p<0.05. FIGS. 6C to 6D show senescence-associated beta-galactosidase (SA-β-gal) stained livers of STZ/HFD mice treated with vehicle control (FIG. 6C) or 753b (FIG. 6D). Scale bar: […].
(§2) Experimental design: C57BL6 mice were injected with Streptozotocin (STZ) at postnatal day 2 to induce diabetes and then fed with HFD from postnatal day 30 till the end of the experiments (FIG. 5). Half of the mice started receiving vehicle and the others receiving 753b (5 mg/kg) treatment on postnatal day 45 twice a week by IP injection till the end of the experiments. A group of the mice were euthanized at postnatal day 90 (or day 45 after the initiation of the treatment) for analysis of senescent cell accumulation and steatosis. Another group of the mice were euthanized at postnatal day 150 (or day 105 after the initiation of the treatment) for analysis of liver fibrosis and cancer.
(§3) 753b effectively clears senescent cells induced by STZ/HFD in the liver. The liver tissues were collected from mice at postnatal day 90 (p90 or 45 days after treatment) for the analyses. […] Data were means±SD of triplicate experiments.

Data set [3] addresses T1, Bcl-xL (Mus musculus, UniProt Q64373).
T1 construct: Western blot of Bcl-xl levels in the livers of STZ/HFD mice treated with 753b or vehicle control; from tissue; host or cells: liver of C57BL6 mice (STZ plus high fat diet)
Nature of the data set: Bcl-xL level in livers of STZ/HFD mice (Western blotting). The format is in vivo, C57BL6 mice. As to conditions: 5 mg/kg twice a week IP, postnatal day 90, vs vehicle. The procedure:
as §1, §2, §3
In general terms: A western blot detects proteins with antibodies after separation by electrophoresis.

T1 sequence (Q64373 whole entry): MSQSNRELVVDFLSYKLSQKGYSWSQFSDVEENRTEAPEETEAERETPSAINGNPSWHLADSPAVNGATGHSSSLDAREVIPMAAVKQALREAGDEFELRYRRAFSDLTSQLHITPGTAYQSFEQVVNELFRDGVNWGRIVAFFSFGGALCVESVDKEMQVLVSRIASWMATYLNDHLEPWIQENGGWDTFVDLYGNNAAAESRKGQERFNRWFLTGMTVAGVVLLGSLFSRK

Regarding `Cc1ncsc1-c1ccc([C@H](C)NC(=O)[C@@H]2C[C@@H](O)CN2C(=O)[C@@H](NC(=O)CCCCCCC(=O)N2CCN(C[C@]3(C)CCC(c4ccc(Cl)cc4)=C(CN4CCN(c5ccc(C(=O)NS(=O)(=O)c6ccc(N[C@H](CCN7CCOCC7)CSc7ccccc7)c(S(=O)(=O)C(F)(F)F)c6)cc5)CC4)C3)CC2)C(C)(C)C)cc1` [Compound 753b], the “Toxicity (viability) to Non-SnCs compared with ABT263” value in data set [1] is reported as “less toxic”. Also, the “Senescent cell burden in the liver (SA-β-gal staining)” value in data set [2] (postnatal day 90) is “reduced senescent cell burden”. Further, in data set [2] (postnatal day 90, Q-RT-PCR), the “p16 mRNA level in the liver” value is given as “inhibited upregulation” and the “p21 mRNA level in the liver” value is “inhibited upregulation”. The “Bcl-xL accumulation in the livers” value in data set [3] was “reduced Bcl-xL accumulation”.
